These results are taken from paper PMC2630426 (Journal of medicinal chemistry, 2008).

Assay [1] has as its target T1, μ opioid receptor (Rattus norvegicus, UniProt P33535). In words: rat brain membrane binding assay, μ opioid receptor. The note with it: based on the receptor binding constants (Ki values).
Assay [2] has as its target T2, κ opioid receptor (Cavia porcellus, UniProt P41144). In words: GPI assay, κ opioid antagonist potency. The format is biochemical, guinea pig.
For assay [3], the target named is T3, δ opioid receptor (Mus musculus, UniProt P32300). The assay is described as follows: MVD assay, δ opioid antagonist potency. The format is biochemical.
T3 sequence (P32300 whole entry): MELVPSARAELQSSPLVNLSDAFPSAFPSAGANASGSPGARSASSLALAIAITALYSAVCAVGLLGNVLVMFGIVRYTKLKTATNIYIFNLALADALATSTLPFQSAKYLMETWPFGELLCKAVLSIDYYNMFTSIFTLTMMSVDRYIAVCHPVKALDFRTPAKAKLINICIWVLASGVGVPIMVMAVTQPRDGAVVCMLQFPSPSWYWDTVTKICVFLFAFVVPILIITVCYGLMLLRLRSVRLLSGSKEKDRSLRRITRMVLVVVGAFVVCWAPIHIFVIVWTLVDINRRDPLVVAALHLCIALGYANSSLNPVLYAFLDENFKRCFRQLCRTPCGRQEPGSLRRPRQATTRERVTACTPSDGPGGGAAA
The target of assay [4] is T1, μ opioid receptor. The note with it: cited from earlier work.
The target of assay [5] is T2, κ opioid receptor. The note with it: GPI, U50,488 as κ agonist, cited from earlier work.
For assay [6], the target named is T3, δ opioid receptor. The note with it: cited from earlier work; for Ke^δ: MVD, DPDPE as δ agonist.
Assay [7] deals with μ opioid receptor. The note with it: GPI, TAPP as μ agonist, cited from earlier work.
Assay [8] concerns the target T2, κ opioid receptor. The note with it: read-out: Ki^κ, opioid receptor binding, cited from earlier work.
The target of assay [9] is T4, δ opioid receptor (Rattus norvegicus, UniProt P33533). The note with it: ref Schiller et al. 4, cited from earlier work.
T4 sequence (P33533 whole entry): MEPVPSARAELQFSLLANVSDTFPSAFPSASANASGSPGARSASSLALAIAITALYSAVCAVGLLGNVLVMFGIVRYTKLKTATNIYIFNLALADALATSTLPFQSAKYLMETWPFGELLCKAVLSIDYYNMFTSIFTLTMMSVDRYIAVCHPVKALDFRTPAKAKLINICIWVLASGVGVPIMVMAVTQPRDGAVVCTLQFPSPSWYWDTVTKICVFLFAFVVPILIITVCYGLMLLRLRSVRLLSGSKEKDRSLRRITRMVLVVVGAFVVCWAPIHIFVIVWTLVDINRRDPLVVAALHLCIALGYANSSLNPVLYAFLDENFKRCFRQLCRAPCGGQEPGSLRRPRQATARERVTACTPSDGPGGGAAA
Assay [10] has as its target T4, δ opioid receptor. The note with it: read-out: Ki^δ; cited from earlier work.
In assay [11] the target is μ opioid receptor. The note with it: cited from earlier work; for Ki: read-out: Ki^μ.
Assay [12] deals with T4, δ opioid receptor. The note with it: cited from earlier work.
Assay [13] concerns μ opioid receptor. The note with it: cited from earlier work.
[14] abbreviates: endomorphin-derived μ antagonists.

Like-named read-outs stand apart in the source and are kept apart here.

T2 sequence (P41144 whole entry): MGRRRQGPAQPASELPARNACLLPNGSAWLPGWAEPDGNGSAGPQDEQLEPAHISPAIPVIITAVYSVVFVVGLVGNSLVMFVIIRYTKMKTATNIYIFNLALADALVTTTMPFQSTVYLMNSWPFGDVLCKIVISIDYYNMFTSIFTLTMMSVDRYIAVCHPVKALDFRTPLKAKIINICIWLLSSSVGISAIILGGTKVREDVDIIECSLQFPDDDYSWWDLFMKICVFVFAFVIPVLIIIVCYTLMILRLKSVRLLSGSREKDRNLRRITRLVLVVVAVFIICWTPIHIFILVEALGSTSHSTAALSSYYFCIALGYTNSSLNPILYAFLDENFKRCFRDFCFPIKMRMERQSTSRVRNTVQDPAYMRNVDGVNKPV
T1 sequence (P33535 whole entry): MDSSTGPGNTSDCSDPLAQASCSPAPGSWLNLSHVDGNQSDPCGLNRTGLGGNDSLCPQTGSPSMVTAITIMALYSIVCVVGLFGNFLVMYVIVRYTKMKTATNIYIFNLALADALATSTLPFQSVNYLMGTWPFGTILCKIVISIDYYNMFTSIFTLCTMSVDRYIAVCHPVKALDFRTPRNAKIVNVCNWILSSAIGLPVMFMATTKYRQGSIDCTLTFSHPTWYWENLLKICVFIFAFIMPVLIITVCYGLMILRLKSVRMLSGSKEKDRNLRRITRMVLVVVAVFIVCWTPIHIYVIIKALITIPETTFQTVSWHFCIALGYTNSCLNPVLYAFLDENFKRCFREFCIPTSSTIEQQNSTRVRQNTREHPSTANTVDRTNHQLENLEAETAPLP

For orientation: Kb means the affinity of an antagonist, worked out from how it opposes an agonist. Higher therefore signals a less potent antagonist. `CC[C@H](C)[C@H](NC(=O)[C@H](CCCNC(=N)N)NC(=O)[C@H](CCCNC(=N)N)NC(=O)[C@H](CC(C)C)NC(=O)[C@H](Cc1ccccc1)NC(=O)CNC(=O)CNC(=O)[C@@H](C)Cc1c(C)cc(C(N)=O)cc1C)C(=O)N[C@@H](CCCNC(=N)N)C(=O)N1CCC[C@H]1C(=O)N[C@@H](CCCCN)C(N)=O` [compound 5, [(2S)-Mdcp^1]Dyn A(1-11)-NH2]: the “Ki ratio μ/δ/κ” value at μ opioid receptor [1] is reported as 1/1/1. Also, the Kb at κ opioid receptor [2] was 5.96 ± 0.8 nM; at δ opioid receptor [3] it was 843 ± 88 nM.

In general, Ki refers to a dissociation constant, usually derived from enzyme kinetics or from competition with a known ligand. Regarding “(2S)-Mdp-c[D-Cys-Gly-Phe(pNO2)-D-Cys]NH2 (disulfide) [compound 2]”, the “Ki ratio μ/δ/κ” value at μ opioid receptor [4] (based on Ki values, ref Schiller et al. 2) was 1/2/42. Besides, at κ opioid receptor [5] (ref Schiller et al. 2), the “Ke^κ” value is listed as 6.41 ± 0.18 nM. In addition, on δ opioid receptor [6] (ref Schiller et al. 2), the “Ke^δ” value is 3.48 ± 0.28 nM. In addition, the “Ke^μ” value in the assay with μ opioid receptor [7] (ref Schiller et al. 2) is 1.48 ± 0.18 nM. Further, the Ki with κ opioid receptor [8] (ref Schiller et al. 2) was 92.8 ± 5.3 nM.

As to “(2S)-Mdp-c[D-Pen-Gly-Phe(pF)-Pen]-Phe-OH (disulfide) (YCGFCF) [compound 4]”, the Ki was 406 ± 21 nM in the assay with μ opioid receptor [4] (read-out: Ki^μ, opioid receptor binding, ref Schiller et al. 4); 2.32 ± 0.4 nM in the assay with δ opioid receptor [9] (read-out: Ki^δ, opioid receptor binding); 3710 ± 400 nM in the assay with κ opioid receptor [8] (ref Schiller et al. 4).

On to “(2S)-Mdp-c[D-Pen-Gly-Phe(pF)-Pen]-Phe-OH (disulfide) [compound 4]”, for which the “Ke^κ” value on κ opioid receptor [5] (ref Schiller et al. 4) is 4370 ± 860 nM. In addition, the “Ke^δ” value on δ opioid receptor [6] (ref Schiller et al. 4) is recorded as 0.785 ± 0.135 nM. In addition, on δ opioid receptor [6] (from Ke values of GPI and MVD assays, ref Schiller et al. 4), the “Ke ratio δ/μ/κ” value is given as 1/851/5570. For the same compound, the “Ki ratio δ/μ/κ” value on δ opioid receptor [9] (based on Ki values) is 1/175/1600. Moreover, the “Ke^μ” value with μ opioid receptor [7] (ref Schiller et al. 4) is on record as 668 ± 40 nM.

Regarding “Dhp-c[N^ε,N^β-carbonyl-D-Lys^2,Dap^5]enkephalinamide”, the inhibitory constant (Ki) with δ opioid receptor [10] was 273 nM; on μ opioid receptor [11], 15.5 nM.

As a reminder, the IC50 is the concentration that inhibits the measured activity by half. Take “H-D-Phe-c[Cys-Tyr-D-Trp-Orn-Thr-Pen]-Thr-NH2 [CTOP]”: on μ opioid receptor [11] (read-out: IC50^μ, somatostatin-derived μ opioid antagonist), the IC50 is 2.8 nM.

Consider H-Dmt-Sar-Phe-D-Nal-NH2, for which, at δ opioid receptor [12], the “Ke^δ” value is recorded as 305 nM. Moreover, in the assay on μ opioid receptor [13], the “Ke^μ” value was 2.34 nM.

“[(2S)-Mdp^1]Dyn A(1-11)-NH2 [compound 6]”: the “Ke^κ” value at κ opioid receptor [5] (ref Lu et al. 3) was 3.92 ± 0.65 nM. Besides, at δ opioid receptor [6] (ref Lu et al. 3), the “Ke^δ” value was 3320 ± 520 nM. For the same compound, the “Ke^μ” value in the assay on μ opioid receptor [7] (ref Lu et al. 3) is listed as 925 ± 94 nM.

Consider “[Dmt^1,D-2-Nal^4]endomorphin-1 [antanal-1]”, for which, on μ opioid receptor [11] (setting [14]), the Ki is 2.38 nM.

With “[Dmt^1,D-2-Nal^4]endomorphin-2 [antanal-2]”, the inhibitory constant (Ki) at μ opioid receptor [11] (setting [14]) was 1.52 nM.
